Consider three molecules from US20080249400A1, “Intraoperative Imaging Of Hepatobiliary Structures” (University of Rochester Medical Center, priority 2006, published 2008).

One data set relates to mammals. Particulars: used in mammals; cited from earlier work.
For data set [1] the following is noted: cited from earlier work.
Data set [2] relates to liver. Briefly: Liver visualization by fluorescent dye in adult pig model after RF thermal ablation (SPY imaging system). The class given is in vivo. The conditions noted are these: intravenous bolus, liver subjected to RF ablation.
Data set [3] deals with liver. Briefly: Rat liver visualized by laser excitation light delivered by fiber optics through a laparoscope. Format: in vivo. Particulars: male Sprague-Dawley rat.

Consider `N=C(N)c1ccc(/C=C/c2ccc(C(=N)N)cc2O)cc1` [Fluorogold], for which the toxicity in mammals result in the data set on mammals is listed as “low evidence of toxicity”.
Turning to Fast Blue, the toxicity in mammals entry with mammals is listed as “low evidence of toxicity”.
On to `CC1(C)C(/C=C/C=C/C=C/C=C2\N(CCCCS(=O)(=O)O)c3ccc4ccccc4c3C2(C)C)=[N+](CCCCS(=O)(=O)[O-])c2ccc3ccccc3c21` [ICG, indocyanine green], for which the distribution entry in data set [1] (after intravenous injection, with normal vascular permeability) is recorded as “remains intravascular”. Further, the metabolism entry in data set [1] (in the body) is “not metabolized in the body”. Besides, in data set [1] (in vivo), the enterohepatic recirculation entry was “does not undergo enterohepatic recirculation”, the excretion route result is “excreted exclusively by the liver” and the intestinal reabsorption entry is listed as “not reabsorbed from the intestine”. For the same molecule, the toxicity in mammals entry with mammals is given as “low evidence of toxicity”. In addition, the “fluorescence of liver tissue (perfusion) under laser excitation” value in the data set on liver [2] is “The lighter areas to the right and bottom sides of the photos indicate normal liver tissue”. For the same molecule, the “fluorescence of liver under laparoscopic laser excitation” value with liver [3] is given as “The brightly fluorescing structure is the liver”.
